Measured values: patent US5459236A, “Vasoactive vasotocin derivatives” (Ferring AB, priority 1990, dated 1995)

Legend:
[1] = system: anaesthetised Sprague Dawley rats, previously treated with dibenamine; experiment: Blood pressure (pressor) test, 4-point test against standard AVP; type: in vivo
Text: (§1) Vasotocin derivatives according to the invention have been tested for potency of both blood pressure and antidiuretic activity in a so-called 4-point test, i.e. the activity of the test substances has been related to a standard preparation (AVP=argininevasopressin), and the effects of two dose levels for each substance have been analysed. In addition, three pressor-specific VT derivatives according to our previous application SE 8703855-0 have been tested for a comparison, namely 1-Hmp-2-Phe-S-Orn-VT (compound 2 in Table 1), 1-Hmp-2-Phe-S-Dab-VT (compound 3 in Table 1), and 1-Hmp-2-Phe-S-Dab(Ala)-VT (compound 5 in Table 1).
Blood pressure tests were carried out on anaesthetised Sprague Dawley rats (about 250 g), previously treated with dibenamine (Dekanski, J., 1952. Br. J. Pharmacol. 7, 567). Maximal blood pressure increase after intravenous injections of peptide was used as a measure of the effect, expressed as intensity.
In addition to potency determination based-on effect intensity, a measure of the length of the effect has been stated (index of persistence (I.P.), Pliska, V., 1966. Arzheim. Forech. 16, 886). This dimensionless factor is a measure of the effect duration of the respective analog in relation to the standard AVP.
(§2) In these two tests, a comparison was made between the effects of the respective derivative and the effect of a standard preparation, AVP, and potency was determined with the aid of a 4-point test and is indicated in international units per micromole (IU/μmole) (Sturmer, E., in Handbook of Expermimental Pharmacology, 1966, Vol 23, pp 130-189).
The specificity in respect of blood pressure is indicated by the ratio of potency blood pressure/potency antidiuresis (BP/AD).

[2] = system: anaesthetised water-loaded Sprague Dawley rats; experiment: Antidiuretic potency test, 4-point test against standard AVP; type: in vivo; conditions: maximal increase of urine conductivity after intravenous injection, 4-point test vs AVP
Text: as §1
Antidiuretic potency was determined with the aid of anaesthetised water-loaded Sprague Dawley rats (200 g) (Larsson, L. E., Lindeberg, G., Melin, P. and Pliska, V., 1978, J. Mad. Chem. 21, 353). Maximal increase of urine conductivity after intravenous injections was used as effect parameter.
as §2

Question: Which results are given for `NC(=O)CC[C@@H]1NC(=O)[C@H](Cc2ccccc2)NC(=O)[C@H](Cc2ccc(O)cc2)NC(=O)[C@@H](N)CSSC[C@@H](C(=O)N2CCC[C@H]2C(=O)N[C@@H](CCCN=C(N)N)C(=O)NCC(N)=O)NC(=O)[C@H](CC(N)=O)NC1=O` [AVP, argininevasopressin]?
Answer: BLOOD PRESSURE BP I.P (measure of duration of effect), index of persistence ([1]; dimensionless, effect duration in relation to the standard AVP, intravenous): 1.0; BLOOD PRESSURE BP potency ([1]; maximal blood pressure increase after intravenous injection, 4-point test vs AVP, anaesthetised rats): 614 ± 25 IU/μmole; BP/AD (measure of specificity) ([1]; ratio of potency blood pressure/potency antidiuresis): 1.0; ANTIDIURESIS AD potency [2]: 620 ± 54 IU/μmole
